From ChEMBL document CHEMBL4507270 (2021)

How the values were obtained:
[1] = molecular target: Protein-tyrosine kinase 2-beta (Homo sapiens) (UniProt Q14289)
[2] = molecular target: Dual specificity mitogen-activated protein kinase kinase 2 (Homo sapiens) (UniProt P36507)
[3] = molecular target: Inhibitor of nuclear factor kappa-B kinase subunit epsilon (Homo sapiens) (UniProt Q14164)
[4] = molecular target: Cyclin-dependent kinase 4 (Homo sapiens) (UniProt P11802)
[5] = molecular target: Tyrosine-protein kinase ITK/TSK (Homo sapiens) (UniProt Q08881)
[6] = molecular target: Muscarinic acetylcholine receptor M2 (Homo sapiens) (UniProt P08172); conditions: Compound concentration 10.0 uM
[7] = molecular target: Vascular endothelial growth factor receptor 3 (Homo sapiens, UniProt P35916)
[8] = molecular target: Megakaryocyte-associated tyrosine-protein kinase (Homo sapiens) (UniProt P42679)
[9] = molecular target: Tyrosine-protein kinase Srms (Homo sapiens) (UniProt Q9H3Y6)
[10] = molecular target: Focal adhesion kinase 1 (Homo sapiens) (UniProt Q05397)
[11] = test system: Tyrosine-protein kinase ABL1 (Homo sapiens), P00519 [Q252H]
[12] = molecular target: Death-associated protein kinase 2 (Homo sapiens) (UniProt Q9UIK4)
[13] = molecular target: Receptor tyrosine-protein kinase erbB-4 (Homo sapiens) (UniProt Q15303)
[14] = test system: ALK tyrosine kinase receptor (Homo sapiens), Q9UM73 [C1156Y]
[15] = molecular target: Phosphatidylinositol 5-phosphate 4-kinase type-2 beta (Homo sapiens) (UniProt P78356)
[16] = molecular target: Myotonin-protein kinase (Homo sapiens) (UniProt Q09013)
[17] = molecular target: cGMP-dependent protein kinase 2 (Homo sapiens) (UniProt Q13237)
[18] = molecular target: Tyrosine-protein kinase receptor UFO (Homo sapiens) (UniProt P30530)
[19] = molecular target: Mitogen-activated protein kinase kinase kinase kinase 2 (Homo sapiens) (UniProt Q12851)
[20] = molecular target: Mitogen-activated protein kinase 1 (Homo sapiens) (UniProt P28482)
[21] = test system: Receptor-type tyrosine-protein kinase FLT3 (Homo sapiens), P36888 [D835V]
[22] = molecular target: Maternal embryonic leucine zipper kinase (Homo sapiens) (UniProt Q14680)
[23] = molecular target: G protein-coupled receptor kinase 3 (Homo sapiens) (UniProt P35626)
[24] = molecular target: Cyclin-dependent kinase 16 (Homo sapiens) (UniProt Q00536)
[25] = molecular target: Serine/threonine-protein kinase OSR1 (Homo sapiens) (UniProt O95747)
[26] = molecular target: Aurora kinase B (Homo sapiens) (UniProt Q96GD4)
[27] = molecular target: Serine/threonine-protein kinase Sgk3 (Homo sapiens) (UniProt Q96BR1)
[28] = molecular target: NUAK family SNF1-like kinase 2 (Homo sapiens) (UniProt Q9H093)
[29] = molecular target: Epidermal growth factor receptor (Homo sapiens) (UniProt P00533)
[30] = molecular target: Macrophage colony-stimulating factor 1 receptor (Homo sapiens) (UniProt P07333)
[31] = molecular target: Cyclin-dependent kinase 18 (Homo sapiens) (UniProt Q07002)
[32] = test system: Tyrosine-protein kinase ABL1 (Homo sapiens), P00519 [F317L]
[33] = molecular target: Myosin-IIIb (Homo sapiens) (UniProt Q8WXR4)
[34] = molecular target: Myosin light chain kinase family member 4 (Homo sapiens) (UniProt Q86YV6)
[35] = test system: Epidermal growth factor receptor (Homo sapiens), P00533 [G719S]
[36] = molecular target: Cyclin-dependent kinase 4 (Homo sapiens) (UniProt P11802); remark: listed apart in the source
[37] = molecular target: Serine/threonine-protein kinase N1 (Homo sapiens) (UniProt Q16512)
[38] = molecular target: Serine/threonine-protein kinase Nek10 (Homo sapiens) (UniProt Q6ZWH5)
[39] = molecular target: Tyrosine-protein kinase receptor TYRO3 (Homo sapiens) (UniProt Q06418)
[40] = molecular target: Mitogen-activated protein kinase kinase kinase 12 (Homo sapiens) (UniProt Q12852)
[41] = test system: Receptor-type tyrosine-protein kinase FLT3 (Homo sapiens), P36888 [D835H]
[42] = molecular target: Serine/threonine-protein kinase tousled-like 1 (Homo sapiens) (UniProt Q9UKI8)
[43] = molecular target: Protein kinase C epsilon type (Homo sapiens) (UniProt Q02156)
[44] = molecular target: Dual specificity protein kinase CLK2 (Homo sapiens) (UniProt P49760)
[45] = molecular target: Ephrin type-A receptor 3 (Homo sapiens) (UniProt P29320)
[46] = molecular target: LIM domain kinase 1 (Homo sapiens) (UniProt P53667)
[47] = Compound concentration 1000.0 nM
[48] = Compound concentration 100.0 nM

Chain of Cyclin-dependent kinase 4 (Homo sapiens) (P11802 whole entry): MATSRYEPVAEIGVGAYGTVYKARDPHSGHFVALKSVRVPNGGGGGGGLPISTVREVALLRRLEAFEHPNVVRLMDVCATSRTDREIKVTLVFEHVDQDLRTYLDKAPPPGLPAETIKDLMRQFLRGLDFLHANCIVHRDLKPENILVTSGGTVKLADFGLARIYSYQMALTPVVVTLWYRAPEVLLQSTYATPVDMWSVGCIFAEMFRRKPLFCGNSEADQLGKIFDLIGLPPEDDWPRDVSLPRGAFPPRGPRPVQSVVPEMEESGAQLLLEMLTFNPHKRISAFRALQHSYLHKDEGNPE
Chain of Tyrosine-protein kinase ITK/TSK (Homo sapiens) (Q08881 whole entry): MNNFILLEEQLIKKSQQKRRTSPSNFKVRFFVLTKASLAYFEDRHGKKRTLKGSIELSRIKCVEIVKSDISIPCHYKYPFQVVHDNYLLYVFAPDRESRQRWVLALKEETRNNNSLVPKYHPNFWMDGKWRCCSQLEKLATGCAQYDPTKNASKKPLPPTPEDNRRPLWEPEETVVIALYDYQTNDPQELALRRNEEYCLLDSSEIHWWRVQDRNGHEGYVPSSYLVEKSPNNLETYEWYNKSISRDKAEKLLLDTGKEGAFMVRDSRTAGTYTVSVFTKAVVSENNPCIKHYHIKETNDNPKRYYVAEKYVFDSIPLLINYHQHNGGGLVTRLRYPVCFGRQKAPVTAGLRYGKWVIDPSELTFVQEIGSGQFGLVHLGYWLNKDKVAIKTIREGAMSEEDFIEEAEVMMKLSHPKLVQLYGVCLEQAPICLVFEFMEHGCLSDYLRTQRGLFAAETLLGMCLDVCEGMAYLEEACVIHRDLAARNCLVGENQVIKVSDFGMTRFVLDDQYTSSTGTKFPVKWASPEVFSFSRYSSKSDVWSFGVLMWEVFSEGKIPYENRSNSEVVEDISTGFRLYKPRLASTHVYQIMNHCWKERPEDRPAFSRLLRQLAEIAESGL
Chain of Vascular endothelial growth factor receptor 3 (P35916 whole entry): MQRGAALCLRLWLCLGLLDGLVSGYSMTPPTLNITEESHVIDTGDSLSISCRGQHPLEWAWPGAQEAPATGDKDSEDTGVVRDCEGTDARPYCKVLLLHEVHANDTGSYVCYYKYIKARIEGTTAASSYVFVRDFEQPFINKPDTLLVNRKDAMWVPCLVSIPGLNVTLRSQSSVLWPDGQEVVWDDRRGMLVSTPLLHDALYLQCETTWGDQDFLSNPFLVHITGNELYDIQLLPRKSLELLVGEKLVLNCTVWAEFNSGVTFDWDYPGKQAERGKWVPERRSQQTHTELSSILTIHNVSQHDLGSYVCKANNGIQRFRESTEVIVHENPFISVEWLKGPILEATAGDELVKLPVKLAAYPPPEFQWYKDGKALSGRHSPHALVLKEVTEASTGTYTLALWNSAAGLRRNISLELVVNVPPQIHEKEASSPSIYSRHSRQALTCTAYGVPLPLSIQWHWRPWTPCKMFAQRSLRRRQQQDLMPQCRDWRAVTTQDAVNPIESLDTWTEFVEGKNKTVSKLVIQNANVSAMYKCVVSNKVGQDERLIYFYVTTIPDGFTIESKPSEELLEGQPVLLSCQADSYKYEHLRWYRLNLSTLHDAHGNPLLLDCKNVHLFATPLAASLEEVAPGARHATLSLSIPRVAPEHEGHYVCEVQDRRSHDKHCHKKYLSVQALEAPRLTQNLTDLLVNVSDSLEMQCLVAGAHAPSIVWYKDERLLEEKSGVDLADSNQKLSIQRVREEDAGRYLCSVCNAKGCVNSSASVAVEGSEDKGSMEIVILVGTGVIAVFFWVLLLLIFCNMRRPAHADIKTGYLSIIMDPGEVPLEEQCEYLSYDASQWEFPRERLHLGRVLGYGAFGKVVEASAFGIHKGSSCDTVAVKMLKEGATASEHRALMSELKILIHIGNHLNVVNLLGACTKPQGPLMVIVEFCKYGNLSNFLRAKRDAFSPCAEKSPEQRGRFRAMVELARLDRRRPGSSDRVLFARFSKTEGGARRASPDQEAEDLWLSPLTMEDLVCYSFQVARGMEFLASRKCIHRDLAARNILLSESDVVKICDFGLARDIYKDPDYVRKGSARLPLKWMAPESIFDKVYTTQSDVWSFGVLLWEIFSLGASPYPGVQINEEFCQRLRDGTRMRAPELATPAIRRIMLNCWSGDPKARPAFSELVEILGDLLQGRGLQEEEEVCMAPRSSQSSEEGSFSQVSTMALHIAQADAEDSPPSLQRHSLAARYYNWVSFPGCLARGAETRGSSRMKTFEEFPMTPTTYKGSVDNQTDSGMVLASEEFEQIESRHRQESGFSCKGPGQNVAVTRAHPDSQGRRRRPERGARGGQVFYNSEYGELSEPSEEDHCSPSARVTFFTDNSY
Chain of Inhibitor of nuclear factor kappa-B kinase subunit epsilon (Homo sapiens) (Q14164 whole entry): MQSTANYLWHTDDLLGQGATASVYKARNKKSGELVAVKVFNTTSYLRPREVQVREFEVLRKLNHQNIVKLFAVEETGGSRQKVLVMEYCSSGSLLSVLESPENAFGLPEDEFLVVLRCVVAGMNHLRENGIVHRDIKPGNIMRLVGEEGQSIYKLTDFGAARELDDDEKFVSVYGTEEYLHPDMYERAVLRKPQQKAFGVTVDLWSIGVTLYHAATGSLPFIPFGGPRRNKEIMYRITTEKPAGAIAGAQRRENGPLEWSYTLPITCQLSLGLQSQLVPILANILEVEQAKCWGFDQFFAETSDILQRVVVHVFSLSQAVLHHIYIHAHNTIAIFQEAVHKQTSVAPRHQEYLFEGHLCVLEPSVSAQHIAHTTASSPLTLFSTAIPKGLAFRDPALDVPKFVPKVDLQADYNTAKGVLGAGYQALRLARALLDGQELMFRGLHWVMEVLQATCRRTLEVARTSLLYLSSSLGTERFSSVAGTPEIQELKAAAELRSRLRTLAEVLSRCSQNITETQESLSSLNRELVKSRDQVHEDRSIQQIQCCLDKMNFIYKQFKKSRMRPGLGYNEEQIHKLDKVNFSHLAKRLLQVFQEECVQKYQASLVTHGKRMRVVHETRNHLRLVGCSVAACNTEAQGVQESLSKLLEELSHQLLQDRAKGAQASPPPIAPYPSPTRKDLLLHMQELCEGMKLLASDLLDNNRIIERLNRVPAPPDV
Chain of Focal adhesion kinase 1 (Homo sapiens) (Q05397 2-1052 limits assumed): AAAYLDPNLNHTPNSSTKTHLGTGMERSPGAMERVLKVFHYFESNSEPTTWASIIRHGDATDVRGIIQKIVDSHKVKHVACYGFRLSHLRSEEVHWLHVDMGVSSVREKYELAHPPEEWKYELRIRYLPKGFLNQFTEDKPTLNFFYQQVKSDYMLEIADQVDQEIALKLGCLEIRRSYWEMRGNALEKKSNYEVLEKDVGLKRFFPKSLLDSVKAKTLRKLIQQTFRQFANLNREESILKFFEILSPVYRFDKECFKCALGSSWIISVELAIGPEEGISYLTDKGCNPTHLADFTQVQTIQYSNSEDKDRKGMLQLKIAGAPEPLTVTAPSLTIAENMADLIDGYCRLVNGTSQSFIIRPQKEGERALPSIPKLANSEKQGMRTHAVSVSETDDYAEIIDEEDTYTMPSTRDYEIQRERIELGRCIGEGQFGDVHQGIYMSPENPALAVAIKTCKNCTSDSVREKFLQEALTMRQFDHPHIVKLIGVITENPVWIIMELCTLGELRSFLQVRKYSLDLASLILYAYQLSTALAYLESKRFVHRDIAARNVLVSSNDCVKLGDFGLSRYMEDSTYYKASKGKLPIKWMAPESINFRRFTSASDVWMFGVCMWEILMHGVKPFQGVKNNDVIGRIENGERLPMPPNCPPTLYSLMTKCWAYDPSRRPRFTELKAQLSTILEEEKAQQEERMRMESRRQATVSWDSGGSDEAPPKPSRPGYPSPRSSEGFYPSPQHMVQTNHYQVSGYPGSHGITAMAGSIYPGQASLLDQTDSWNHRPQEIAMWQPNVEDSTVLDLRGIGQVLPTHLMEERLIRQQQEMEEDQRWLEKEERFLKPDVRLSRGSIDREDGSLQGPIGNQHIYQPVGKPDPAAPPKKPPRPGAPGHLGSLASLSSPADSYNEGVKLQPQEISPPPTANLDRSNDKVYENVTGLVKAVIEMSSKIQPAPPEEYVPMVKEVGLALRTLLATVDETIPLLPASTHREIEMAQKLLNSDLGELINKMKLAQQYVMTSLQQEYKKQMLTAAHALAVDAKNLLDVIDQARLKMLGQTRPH
Chain of Tyrosine-protein kinase Srms (Homo sapiens) (Q9H3Y6 whole entry): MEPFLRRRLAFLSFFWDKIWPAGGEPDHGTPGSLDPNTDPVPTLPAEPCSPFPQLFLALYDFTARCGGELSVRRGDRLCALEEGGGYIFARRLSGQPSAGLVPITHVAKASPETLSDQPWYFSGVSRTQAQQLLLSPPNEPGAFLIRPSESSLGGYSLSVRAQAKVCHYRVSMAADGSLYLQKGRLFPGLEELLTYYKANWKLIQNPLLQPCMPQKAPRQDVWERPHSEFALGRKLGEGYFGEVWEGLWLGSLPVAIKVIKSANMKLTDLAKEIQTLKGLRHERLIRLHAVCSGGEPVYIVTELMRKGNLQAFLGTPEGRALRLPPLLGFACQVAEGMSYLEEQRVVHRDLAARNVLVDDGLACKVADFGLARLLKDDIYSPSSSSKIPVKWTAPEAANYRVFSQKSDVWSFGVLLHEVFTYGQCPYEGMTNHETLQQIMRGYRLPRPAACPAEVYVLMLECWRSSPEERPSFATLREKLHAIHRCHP
Chain of Death-associated protein kinase 2 (Homo sapiens) (Q9UIK4 whole entry, looked up): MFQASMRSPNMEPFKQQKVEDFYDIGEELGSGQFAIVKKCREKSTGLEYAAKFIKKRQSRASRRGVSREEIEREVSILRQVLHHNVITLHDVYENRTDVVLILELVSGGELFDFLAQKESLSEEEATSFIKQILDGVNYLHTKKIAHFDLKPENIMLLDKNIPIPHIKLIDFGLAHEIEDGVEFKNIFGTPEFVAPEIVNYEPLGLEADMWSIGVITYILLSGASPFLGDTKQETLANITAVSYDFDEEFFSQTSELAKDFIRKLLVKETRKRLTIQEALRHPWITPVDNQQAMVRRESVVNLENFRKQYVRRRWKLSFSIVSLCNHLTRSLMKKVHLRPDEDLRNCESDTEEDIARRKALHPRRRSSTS

Cc1cc(NC(=O)c2cccc(S(F)(F)(F)(F)F)c2)cc(-n2ccn3nc(-c4cccnc4)cc23)c1 [BAY-309]
residual activity [1, 47]: 100%
residual activity [2, 47]: 93.3%
residual activity [3, 47]: 100%
residual activity [4, 47]: 82.9%
residual activity [5, 47]: 100%
inhibition [6]: 32.7%
residual activity [7, 47]: 82.3%
residual activity [8, 47]: 100%
residual activity [9, 47]: 86.9%
residual activity [10, 47]: 96.4%
residual activity [11, 47]: 49.2%
residual activity [12, 47]: 100%
residual activity [13, 47]: 98.1%
residual activity [14, 47]: 100%
residual activity [15, 47]: 100%
residual activity [16, 47]: 100%
residual activity [17, 47]: 100%
residual activity [18, 47]: 100%
residual activity [19, 47]: 100%
residual activity [20, 47]: 61.7%
residual activity [21, 47]: 100%
residual activity [22, 47]: 100%
residual activity [23, 47]: 74.8%
residual activity [24, 47]: 100%
residual activity [25, 47]: 100%
residual activity [26, 47]: 82%
residual activity [27, 47]: 72.1%
residual activity [28, 47]: 100%
residual activity [29, 47]: 100%
residual activity [30, 47]: 89%
residual activity [31, 47]: 80.6%
residual activity [32, 47]: 100%
residual activity [33, 47]: 73.8%
residual activity [34, 47]: 91.4%
residual activity [35, 47]: 100%
residual activity [36, 47]: 79.3%
residual activity [37, 47]: 100%
residual activity [38, 47]: 37.6%
residual activity [39, 47]: 88.4%
residual activity [40, 47]: 67.7%
residual activity [41, 47]: 99.9%
residual activity [42, 47]: 100%
residual activity [43, 47]: 91.2%
residual activity [44, 47]: 100%
residual activity [45, 47]: 100%
residual activity [46, 47]: 100%

Cc1cc(C)c(-n2ccn3nc(-c4cccnc4)cc23)cc1NC(=O)c1cc(C#N)cc(S(F)(F)(F)(F)F)c1 [BAY-826]
residual activity [1, 48]: 81.4%
residual activity [2, 48]: 74.4%
residual activity [3, 48]: 59.9%
residual activity [4, 48]: 89.4%
residual activity [5, 48]: 84.9%
inhibition [6]: 10.5%
residual activity [7, 48]: 77.6%
residual activity [8, 48]: 80.4%
residual activity [9, 48]: 67.4%
residual activity [10, 48]: 100%
residual activity [11, 48]: 31.4%
residual activity [12, 48]: 75.8%
residual activity [13, 48]: 96.3%
residual activity [14, 48]: 76.6%
residual activity [15, 48]: 52.2%
residual activity [16, 48]: 95.6%
residual activity [17, 48]: 82.7%
residual activity [18, 48]: 80.5%
residual activity [19, 48]: 53.1%
residual activity [20, 48]: 88.1%
residual activity [21, 48]: 85.2%
residual activity [22, 48]: 100%
residual activity [23, 48]: 90.6%
residual activity [24, 48]: 92.5%
residual activity [25, 48]: 87%
residual activity [26, 48]: 98.8%
residual activity [27, 48]: 81.5%
residual activity [28, 48]: 86.1%
residual activity [29, 48]: 85.1%
residual activity [30, 48]: 92.9%
residual activity [31, 48]: 98.4%
residual activity [32, 48]: 26.6%
residual activity [33, 48]: 82.4%
residual activity [34, 48]: 100%
residual activity [35, 48]: 94.8%
residual activity [36, 48]: 82.4%
residual activity [37, 48]: 96.7%
residual activity [38, 48]: 100%
residual activity [39, 48]: 72.4%
residual activity [40, 48]: 82.5%
residual activity [41, 48]: 87.8%
residual activity [42, 48]: 89.1%
residual activity [43, 48]: 100%
residual activity [44, 48]: 91%
residual activity [45, 48]: 89.8%
residual activity [46, 48]: 83.6%
